“And” between values parts separate entries of the source, which are not always exact repeats. Equal values may be shown once. Inconclusive results and toxic doses are left out.

The subject of this experiment is B6C3F1 mice, ip Sarcoma M5076, median survival T/C. Description: NCI In Vivo Anticancer Drug Screen. Data for tumor model Sarcoma M5076 (intraperitoneal) in B6C3F1 mice. Particulars: endpoint: median survival time, higher = longer survival. In outline: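 Mice carrying the transplanted tumour received compound treatment. Survival was recorded, and each value is the treated-group measurement divided by that of the vehicle-dosed control group.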

[1] abbreviates: dose: 50.0 mg/kg/injection, schedule: Q04DX004 (ip), vehicle: saline.
The mark [2] stands for this setting: dose: 100.0 mg/kg/injection, schedule: Q04DX004 (ip), vehicle: saline.
The mark [3] stands for this setting: dose: 50.0 mg/kg/injection, schedule: Q04DX004 (ip), vehicle: Klucel (hydroxypropylcellulose) (HPC).
The mark [4] stands for this setting: dose: 100.0 mg/kg/injection, schedule: Q04DX004 (ip), vehicle: Klucel (hydroxypropylcellulose) (HPC).
The mark [5] stands for this setting: dose: 200.0 mg/kg/injection, schedule: Q04DX004 (ip), vehicle: Klucel (hydroxypropylcellulose) (HPC).
[6] abbreviates: dose: 400.0 mg/kg/injection, schedule: Q04DX004 (ip), vehicle: Klucel (hydroxypropylcellulose) (HPC).

For `O=C1C(=O)N(c2ccccc2Cl)C(=O)N1Cc1ccccc1`, the T/C (dose: 43.75 mg/kg/injection, schedule: Q04DX004 (ip), vehicle: Klucel (hydroxypropylcellulose) (HPC)) is 102 % of control; the T/C (dose: 87.5 mg/kg/injection, schedule: Q04DX004 (ip), vehicle: Klucel (hydroxypropylcellulose) (HPC)) is 98 % of control; the T/C (dose: 175.0 mg/kg/injection, schedule: Q04DX004 (ip), vehicle: Klucel (hydroxypropylcellulose) (HPC)) was 109 % of control; the T/C (dose: 350.0 mg/kg/injection, schedule: Q04DX004 (ip), vehicle: Klucel (hydroxypropylcellulose) (HPC)) was 94 % of control; the T/C (dose: 700.0 mg/kg/injection, schedule: Q04DX004 (ip), vehicle: Klucel (hydroxypropylcellulose) (HPC)) is 93 % of control.

For `NC(C(=O)O)C1=CCCCCC1` (configuration not stated), the T/C was 100 % of control (dose: 16.25 mg/kg/injection, schedule: Q04DX004 (ip), vehicle: Klucel (hydroxypropylcellulose) (HPC)); 111 % of control (dose: 32.5 mg/kg/injection, schedule: Q04DX004 (ip), vehicle: Klucel (hydroxypropylcellulose) (HPC)); 104 % of control (dose: 65.0 mg/kg/injection, schedule: Q04DX004 (ip), vehicle: Klucel (hydroxypropylcellulose) (HPC)); 95 % of control (dose: 130.0 mg/kg/injection, schedule: Q04DX004 (ip), vehicle: Klucel (hydroxypropylcellulose) (HPC)); 100 % of control (dose: 260.0 mg/kg/injection, schedule: Q04DX004 (ip), vehicle: Klucel (hydroxypropylcellulose) (HPC)).

As to `CN1CCN(c2c(C(=O)Nc3ccc([N+](=O)[O-])cc3)cc([N+](=O)[O-])cc2[N+](=O)[O-])CC1`, the T/C is, setting by setting: (dose: 37.5 mg/kg/injection, schedule: Q04DX004 (ip), vehicle: saline with Tween-80) 96 % of control; (dose: 75.0 mg/kg/injection, schedule: Q04DX004 (ip), vehicle: saline with Tween-80) 91 % of control.

As to `[Cl][Hg][Cl]`, the T/C is, setting by setting: (dose: 0.38 mg/kg/injection, schedule: Q04DX004 (ip), vehicle: saline) 93 % of control; (dose: 0.39 mg/kg/injection, schedule: Q04DX004 (ip), vehicle: saline) 96 % of control; (dose: 0.75 mg/kg/injection, schedule: Q04DX004 (ip), vehicle: saline) 96 % of control; (dose: 0.78 mg/kg/injection, schedule: Q04DX004 (ip), vehicle: saline) 86 % of control; (dose: 1.5 mg/kg/injection, schedule: Q04DX004 (ip), vehicle: saline) 96 % of control; (dose: 1.56 mg/kg/injection, schedule: Q04DX004 (ip), vehicle: saline) 87 % of control. In addition, the T/C is 93 % of control (dose: 3.0 mg/kg/injection, schedule: Q04DX004 (ip), vehicle: saline) and 87 % of control (dose: 3.12 mg/kg/injection, schedule: Q04DX004 (ip), vehicle: saline).

With `O=C1N[C@@H]([C@H]2CC[C@H](Cl)CN2)C(=O)N[C@H]1[C@H]1CC[C@H](Cl)CN1`, the T/C is, setting by setting: (dose: 0.5 mg/kg/injection, schedule: Q04DX005 (ip), vehicle: saline) 115 % of control; (dose: 2.0 mg/kg/injection, schedule: Q04DX005 (ip), vehicle: saline) 185 % of control; (dose: 4.0 mg/kg/injection, schedule: Q04DX005 (ip), vehicle: saline) 319 % of control; (dose: 8.0 mg/kg/injection, schedule: Q04DX005 (ip), vehicle: saline) 319 % of control.

Turning to `CCCS(=N)(=O)CCC(N)C(=O)O` (configuration not stated), the T/C under setting [1] is 103 % of control; the T/C under setting [2] is 105 % of control; the T/C (dose: 200.0 mg/kg/injection, schedule: Q04DX004 (ip), vehicle: saline) is 102 % of control; the T/C (dose: 400.0 mg/kg/injection, schedule: Q04DX004 (ip), vehicle: saline) was 102 % of control; the T/C (dose: 800.0 mg/kg/injection, schedule: Q04DX004 (ip), vehicle: saline) is 105 % of control.

For the compound `COc1cccc2c1[C@H]1CO[C@H]3C4C[C@H](C(=O)O)C([C@@H](C2)N13)N4C` (some centres not stated), the T/C runs as follows: (dose: 0.62 mg/kg/injection, schedule: Q04DX004 (ip), vehicle: water) 98 % of control; (dose: 1.25 mg/kg/injection, schedule: Q04DX004 (ip), vehicle: water) 100 % of control; (dose: 2.5 mg/kg/injection, schedule: Q04DX004 (ip), vehicle: water) 102 % of control; (dose: 5.0 mg/kg/injection, schedule: Q04DX004 (ip), vehicle: water) 109 % of control; (dose: 10.0 mg/kg/injection, schedule: Q04DX004 (ip), vehicle: water) 118 % of control.

Turning to `CC1=C(C(N)=O)C(c2ccccc2)NC(=S)N1` (configuration not stated), the T/C under setting [3] is 107 % of control, the T/C under setting [4] was 99 % of control and the T/C under setting [5] is 104 % of control.

`O=C1c2ccccc2C(=O)c2c1cn1c2Cc2ccccc2C1`: the T/C was 90 % of control (dose: 25.0 mg/kg/injection, schedule: Q04DX004 (ip), vehicle: Klucel (hydroxypropylcellulose) (HPC)); 96 % of control and 102 % of control (dose: 25.0 mg/kg/injection, schedule: Q04DX004 (ip), vehicle: other); 91 % of control and 93 % of control under setting [3]; 96 % of control and 103 % of control (dose: 50.0 mg/kg/injection, schedule: Q04DX004 (ip), vehicle: other); 90 % of control under setting [4]; 106 % of control (dose: 100.0 mg/kg/injection, schedule: Q04DX004 (ip), vehicle: other). Also, the T/C was 93 % of control (dose: 150.0 mg/kg/injection, schedule: Q04DX004 (ip), vehicle: other); 88 % of control under setting [5]; 97 % of control (dose: 200.0 mg/kg/injection, schedule: Q04DX004 (ip), vehicle: other); 89 % of control and 95 % of control under setting [6].

In the case of `Cc1cccc(-n2c(CC#N)n[nH]c2=S)c1`, the T/C is 115 % of control (dose: 50.0 mg/kg/injection, schedule: Q04DX004 (ip), vehicle: saline with Tween-80); 109 % of control (dose: 100.0 mg/kg/injection, schedule: Q04DX004 (ip), vehicle: saline with Tween-80); 96 % of control (dose: 200.0 mg/kg/injection, schedule: Q04DX004 (ip), vehicle: saline with Tween-80); 106 % of control (dose: 400.0 mg/kg/injection, schedule: Q04DX004 (ip), vehicle: saline with Tween-80); 88 % of control (dose: 800.0 mg/kg/injection, schedule: Q04DX004 (ip), vehicle: saline with Tween-80).

On to `COc1ccc(NC(=O)/N=C2\CN(C(=O)c3c(F)cccc3F)C(=O)N2c2ccc(OC)cc2)cc1`, for which the T/C (dose: 3.0 mg/kg/injection, schedule: Q04DX004 (ip), vehicle: saline with Tween-80) was 95 % of control; the T/C (dose: 6.0 mg/kg/injection, schedule: Q04DX004 (ip), vehicle: saline with Tween-80) is 100 % of control; the T/C (dose: 12.0 mg/kg/injection, schedule: Q04DX004 (ip), vehicle: saline with Tween-80) was 102 % of control; the T/C (dose: 24.0 mg/kg/injection, schedule: Q04DX004 (ip), vehicle: saline with Tween-80) was 95 % of control; the T/C (dose: 48.0 mg/kg/injection, schedule: Q04DX004 (ip), vehicle: saline with Tween-80) is 95 % of control.

For the compound `O=C(O)CC1C(=O)OC2C3COC(=O)c4cc(O)c(O)c(O)c4-c4c(cc(O)c(O)c4O)C(=O)OC2C(OC(=O)c2cc(O)c(O)c4c2C1C(O)C(=O)O4)C(OC(=O)c1cc(O)c(O)c(O)c1)O3` (configuration not stated), the T/C is, setting by setting: (dose: 6.25 mg/kg/injection, schedule: Q04DX004 (ip), vehicle: saline) 89 % of control; (dose: 12.5 mg/kg/injection, schedule: Q04DX004 (ip), vehicle: saline) 96 % of control; (dose: 25.0 mg/kg/injection, schedule: Q04DX004 (ip), vehicle: saline) 97 % of control; (dose: 25.0 mg/kg/injection, schedule: Q04DX004 (ip), vehicle: suspension in saline) 96 % of control; under setting [1], 104 % of control; (dose: 50.0 mg/kg/injection, schedule: Q04DX004 (ip), vehicle: suspension in saline) 97 % of control. In addition, the T/C is, setting by setting: under setting [2], 96 % of control; (dose: 100.0 mg/kg/injection, schedule: Q04DX004 (ip), vehicle: suspension in saline) 100 % of control.

Consider `CNC(=S)SC1=NS(=O)(=O)c2ccccc2N1`, for which the T/C is 105 % of control under setting [3]; 102 % of control (dose: 62.0 mg/kg/injection, schedule: Q04DX004 (ip), vehicle: Klucel (hydroxypropylcellulose) (HPC)); 103 % of control under setting [4]; 103 % of control (dose: 104.0 mg/kg/injection, schedule: Q04DX004 (ip), vehicle: Klucel (hydroxypropylcellulose) (HPC)); 113 % of control (dose: 173.0 mg/kg/injection, schedule: Q04DX004 (ip), vehicle: Klucel (hydroxypropylcellulose) (HPC)); 96 % of control under setting [5]. The T/C under setting [6] was 109 % of control.

Values taken from PubChem BioAssay AID292 (DTP/NCI, 2004).
